Measured values published in publication PMC9008879, “Inhibition of CYP3A-mediated Midazolam Metabolism by Kaempferia Parviflora” (Food Safety, 2022).

How the values were obtained:
CYP3A [1] = experiment: Pre-incubation study (time-dependent / mechanism-based inhibition) of MDZ 1'-OH activity in human liver microsomes; assay type: in vitro ADME; conditions: for Change of MDZ 1'-OH activity after pre-incubation: HLM, pre-incubation 0-30 min with or without NADPH, KP extract 120 µg/ml, 5,7-DMF 30 µM, 3,5,7,3',4'-PMF 20 µM; for KI (inactivation) / kinact / kinact/KI: human, human liver microsomes, probe midazolam (MDZ) 10 µM, 1'-hydroxylation, HLM + NADPH, 10-fold dilution; for KI (inactivation): pre-incubation 5-30 min, read-out: KI (inhibitor concentration causing half-maximal inactivation); for kinact / kinact/KI: pre-incubation; for kinact: read-out: kinact (maximal inactivation rate constant) (converted); for kinact/KI: read-out: kinact/KI (efficiency of inactivation) (converted)
Description: Pre-incubation studies were performed to determine whether the metabolic intermediates produced by KP ingredients cause an MBI that inactivates CYP3A. KP extract (120 µg/ml), 5,7-DMF (30 µM), or 3,5,7,3’,4’-PMF (20 µM) was pre-incubated with HLM at 37°C for 10, 20, or 30 min, in the presence or absence of a NADPH-generating system. After the pre-incubation step, MDZ was added, and MDZ 1’-OH activity was assayed as described above.
In addition, another assay was designed to minimize the direct inhibition of CYP3A by KP ingredients by diluting the contents of the inactivation mixture 10-fold. As a primary incubation mixture, KP extract (30-120 µg/ml), 5,7-DMF (6-30 µM), or 3,5,7,3’,4’-PMF (5-20 µM) were pre-incubated in the presence of HLM and a NADPH-generating system at 37°C. Pre-incubation times were 5, 10, 15, or 20 min for KP extract, and 5, 10, 20, or 30 min for 5,7-DMF and 3,5,7,3’,4’-PMF. At determined time points, an aliquot of 50 µL of the primary reaction mixture was moved to 450 µL of the secondary incubation mixture containing 10 µM MDZ, and further incubated for 5 min. The oxidation of MDZ was analyzed as described above.
The decrease in the natural logarithm of the % residual MDZ 1’-OH activity against pre-incubation time was plotted for each inhibitor concentration, and the apparent inactivation rate constant (Kobs) values were described as the negative slopes of the lines. The maximal inactivation rate constant (kinact) and the inhibitor concentration causing half-maximal inactivation (KI) were estimated by double-reciprocal plot of the Kobs against the inhibitor concentration. The efficiency of inactivation was calculated as the ratio of kinact to KI.

CYP3A [2] = experiment: Direct inhibition of CYP3A-mediated MDZ 1'-hydroxylation activity in human liver microsomes; assay type: in vitro ADME; conditions: HLM, 10 µM MDZ; 5,7-DMF 0.03-30 µM, 3,5,7,3',4'-PMF 0.02-20 µM, no pre-incubation
Description: An in vitro study was carried out to investigate the inhibitory effects of KP extract, 5,7-DMF, and 3,5,7,3’,4’-PMF on CYP3A-mediated MDZ 1’-hydroxylation (MDZ 1’-OH) activity.
The reaction mixtures, each with a total volume of 200 µL, consisting of 100 µg pooled HLM, 10 µM MDZ, and a nicotinamide adenine dinucleotide phosphate (NADPH)-generating system (1 mM NADPH, 8 mM glucose 6-phosphate, and 0.5U glucose 6-phosphate dehydrogenase) in 80 mM phosphate buffer (pH 7.4), were incubated at 37°C for 5 min in the presence of KP extract (40-80 µg/ml), 5,7-DMF (0.03-30 µM), or 3,5,7,3’,4’-PMF (0.02-20 µM). […] After centrifugation at 20,800 × g for 10 min at 4°C, the supernatant was injected into an HPLC apparatus equipped with a CAPCELLPAK C18 SG120 column (4.6 mm × 250 mm, Shiseido) and 1’-hydroxymidazolam was analyzed according to a previous report[20]^,[21]^). Control activity was determined under the same conditions with a reaction mixture containing water, 1% methanol, or 1% acetonitrile instead of KP extract, 5,7-DMF, or 3,5,7,3’,4’-PMF. Results were expressed as a percentage of each control activity. The inhibition mode and inhibition constant (Ki) values of KP extract on MDZ 1’-OH activity were calculated using nonlinear regression analysis using GraphPad Prism 7.03 (GraphPad Software Inc., La Jolla, CA, USA).

CYP3A [3] = system: CYP3A; set-up: method as in PMID 29550915; conditions: mice, 5,7-DMF for ten days; cited from earlier work
CYP3A4 = system: CYP3A4; set-up: method as in PMID 17709371; conditions: HLM and recombinant microsomes; cited from earlier work

## COc1cc(OC)c2c(=O)c(OC)c(-c3ccc(OC)c(OC)c3)oc2c1 [3,5,7,3’,4’-PMF, 3,5,7,3’,4’-pentamethoxyflavone]
CYP3A [1]
  Change of MDZ 1'-OH activity after pre-incubation: time- and NADPH-dependent decrease
  KI (inactivation): 25.5 µM
  kinact: 2.67e-05 s⁻¹
  kinact/KI: 1.05 M⁻¹ s⁻¹
CYP3A [2]
  Direct inhibition of MDZ 1'-OH activity: did not inhibit

## COc1cc(OC)c2c(=O)cc(-c3ccccc3)oc2c1 [5,7-DMF, 5,7-dimethoxyflavone]
CYP3A [3]
  AUC of MDZ: increased
  Elimination half-life (t1/2) of MDZ: increased
  Hepatic CYP3A expression: decreased
CYP3A [1]
  Change of MDZ 1'-OH activity after pre-incubation: time- and NADPH-dependent decrease
  KI (inactivation): 10.7 µM
  kinact: 0.000433 s⁻¹
  kinact/KI: 40 M⁻¹ s⁻¹
CYP3A [2]
  Direct inhibition of MDZ 1'-OH activity: did not inhibit
CYP3A4
  Metabolizing CYP enzymes: not metabolized by CYP3A4, but by CYP1A1 and CYP1A2
